Our source for the IC95, CIC95/IC50 and IC50 values is patent publication US5886046A, “Dicarbonyl-containing compounds” (priority 1996, dated 1999).

One experiment has as its system HIV-1. As to the kind of experiment: CIC95 (cell culture assay of Thompson, not further described). The class given is cell-based. From the text: (§1) The biological activity compound (4) was compared with the known enzyme inhibitor (1) N-(2(R)-Hydroxy-1(S)-indonyl)-5(S)-[tert-butyloxycarbonyl)amino]-4(S)-hydroxy-6-(4-hydroxyphenyl)-2-(R) -[(4-hydroxyphenyl)methyl]hexanamide. See, e.g., Thompson, W. J. et al., J. Med. Chem. 1992, 35, 1685) according to methods recited in the Thompson, supra. and Heimbach, J. C. et al., Biochem. Biophys. Res. Commun. 1989, 164, 955-960.

In a further experiment the target is HIV-1 protease (Human immunodeficiency virus type 1 group M subtype B, UniProt P12497). As to the kind of experiment: biochemical.
Description: as §1

`CC(=O)C(=O)COc1ccc(C[C@H](C[C@H](O)[C@H](Cc2ccccc2)NC(=O)OC(C)(C)C)C(=O)N[C@H]2c3ccccc3C[C@H]2O)cc1` [Compound 4] gave an IC95 in the experiment with HIV-1 (Human immunodeficiency virus 1) of less than 6 nM. Also, in the experiment with HIV-1 (ratio of CIC95 to IC50), the CIC95/IC50 is less than 80. This compound also came in with a concentration for half-maximal inhibition (IC50) on HIV-1 protease of 0.075 nM.
